Measurements taken from patent US20090264470A1 (priority 2006, published 2009).

How the values were obtained:
[1] = target: T1, CB2 receptor (Homo sapiens, UniProt P34972); assay: Ca2+i response to 2-AG (dose-response with or without compound), CB2 receptor bearing cells; format: cell-based; details: CB2 receptor bearing cells (FIG. 2)
T1 construct: host or cells: CB2 receptor bearing cells

[2] = target: T2, human CB1 receptors (Homo sapiens, UniProt P21554); assay: [35S]GTPγS binding assay, CHO-k1 cell membranes; format: biochemical
T2 construct: expressed in transfected cells; host or cells: CHO-k1 cells (membranes)
Experimental: [^35S]GTPγS binding assays were performed with CHO-k1 cell membranes stably expressing human CB1 receptors in 96-well ScintiPlate (PerkinElmer). The membranes (12.5 μg/well) were preincubated with compound 7 in the binding buffer (50 mM Tris-HCl, pH 7.4, 100 mM NaCl, 3 mM MgCl2, 0.2 mM EDTA, 0.2% BSA and 10 μM GDP) at 30° C. for 30 min, then added various concentrations of agonists (WIN 55212-2 or CP 55,940) and [^35S]GTPγS (0.2 nM) in a final volume of 200 μl. Reactions were carried out at 30° C. for 60 min, followed by centrifugation of plate at […] for 15 min. After removing supernatant, the radioactivity was quantitated on a TopCounter.

[3] = target: T3, Human Cannabinoid 1 (CB1) (Homo sapiens, UniProt P21554); assay: Ca2+i response to 2-AG (dose-response with or without compound), CB1 GqΔGi/CHO cells, DSIS flow cytometry; format: cell-based; details: 2-AG with or without compound (FIG. 2)
T3 construct: expressed in transfected cells; host or cells: CHO cells stably expressing the GqΔGi chimera
Excerpt: cDNA for the G protein GqΔGi chimera was generated by PCR and inserted into the polylinker region of the pcDNA3/hygro+vector (Invitrogen). Stable expression of GqΔGi chimera protein in CHO cell line was generated under hygromycin selection. Human Cannabinoid 1 (CB1) cDNA was inserted into the polylinker region of the pcDNA3.1/(+) vector (Invitrogen) and DNA was introduced into the GqΔGi/CHO cell line by Lipofectamine reagent (Invitrogen). Cell lines stably expressing the CB receptor with Gq ΔGi chimera protein were generated by double selection with hygromycin and G418 (Coward, P., et al. 1999. Chimeric G proteins allow a high-throughput signaling assay of Gi-coupled receptors. Anal Biochem. 270:242-8).
CB1 Cells were plated 24-48 hours in advance, and were harvested with trypsin at ˜80% confluency. […]
The probe-loaded CB1 and Control cell mixture was placed in the Cell Suspension System on the DSIS where they were continuously rocked to keep them in a suspended state. […] The DSIS software, NVS Sampler, recorded a timing file and the CyAn software, Summit, recorded a data file. These two files were then compiled and analyzed by our proprietary software, NVS Analyzer, to determine the percent of cells that responded to each concentration. The data was transferred to GraphPAD Prism for a non-linear regression curve fit that determined the EC50. […]

[4] = target: T4, mouse CB1 (mouse brain membrane) (Mus musculus, UniProt P47746); assay: Competition ligand binding assay, mouse brain membrane preparations; details: mouse brain membranes (FIG. 6)
T4 construct: human CB1 receptors or mouse brain membrane preparations in 96-well plate format; from tissue; host or cells: mouse brain membrane preparations
Experimental: (§1) Competition ligand binding assays were performed with the non-selective cannabinoid receptor agonist ([^3H]CP 55,940) (0.75 nM) in the binding buffer containing 50 mM Tris-HCl, pH 7.4, 3 mM MgCl2, 1 mM EDTA, 0.2% BSA using CHO-k1 cell membranes stably expressing human CB1 receptors or mouse brain membrane preparations in 96-well plate format. The receptor membranes (10 μg/well) were pre-incubated with different concentrations of tested compounds in the binding buffer at room temperature for 30 min prior to addition of 0.75 nM [^3H]CP 55,940 in a final volume of 100 μl. The binding was carried out at room temperature for another 2 h. To determine the non-specific binding, experiments were also performed in the presence of 10 μM unlabeled CP 55,940. Binding was terminated by addition of cold binding buffer and filtrated on Whatman GF/B glass-fiber filters using a sampling manifold. The filters were washed 6 times with cold binding buffer and air-dried overnight. The radioactivity was quantitated on a TopCounter (PerkinElmer) after adding scintillation fluid. Specific binding was defined as the difference between the binding in the presence and absence of 10 μM unlabeled CP 55, 940.

[5] = target: T2, human CB1 receptors; assay: Competition ligand binding assay, CHO-k1 cell membranes; details: human CB1 cell membranes (FIG. 6)
Experimental: as §1

[6] = Acute administration: wet mash and food intake and 24 h body weight in lean male C57BL/6J mice; format: in vivo, mouse; details: dosed orally at 10 mg/kg
Experimental: The goal of this study was to investigate the effects of various ratios of bupropion:(R)-norfluoxetine on body weight and food and water intake in male C57BL/6J mice habituated to the daily presentation of a palatable wet mash diet. […] Animals were maintained on normal-phase lighting. Test compounds were administered orally and measurements were made over the following 24 hours. All experiments included appropriate vehicle-treated control groups.
Sixty-two male C57BL/6J mice (weight range 20-25 g) were ordered from Harlan UK, Bicester, UK. The mice were individually housed in polypropylene cages at a temperature of 21±4° C. and 55%±20% humidity. Animals were maintained on a normal phase light-dark cycle (lights off for 12 h from 19:00-07:00 h) during which time the room was illuminated by red light. […] In addition, animals were habituated to a daily presentation of a wet mash diet (1 part powdered chow:1.5 parts tap water) placed on a dish on the cage floor. Animals were maintained under these conditions for at least ten days before experimentation commenced.
Typically an acute study was run each week with each study containing 60 animals. On the day prior to testing, the experimental animals were randomly allocated to suitable treatment groups. Animals were weighed and 2 h wet mash intake was calculated (to the nearest 0.1 g). […]
Drug administration occurred 60 minutes before the presentation of ‘wet mash’ which was at approximately 09:30 am. […] The mash was replaced with a fresh quantity of wet mash at the 4 hour time point. […] Wet mash was replaced with a known quantity of standard pellets at the 6 hour time point. […] Food and water intakes of the different groups of animals were measured concurrently. The animals were monitored at each reading and any overt drug-induced behavioural effects were recorded. […]
Results (body weights (g) at 0, 24 h; change in body weight (g) over 24; food and water intake at 1, 2, 4, 6 and 24 h and between 1-2 h, 2-4 h, 4-6 h) were expressed as mean values±SEM. […]

[7] = Body weight of diet-induced obese male C57BL/6J mice, repeated oral dosing for 28 days; format: in vivo, mouse; details: Dunnett's test p<0.001; doses as in Table 2
Experimental: Sibutramine, which is currently used clinically, and rimonabant, which has recently received regulatory approval for the management of obesity were used as reference compounds.
Sixty-five C57BL/6J mice (7-8 weeks of age) were ordered from Charles River, Margate, Kent. Mice were group housed in polypropylene cages with free access to a high fat diet (D12451 45% of Kcal derived from fat; Research Diets, New Jersey, USA) and tap water at all times. Animals were maintained at 21±4° C. and 55±20% humidity on a normal phase 12 h light-dark cycle (lights on 04:30 h)
Animals were exposed to the high fat diet for 16 weeks. During this time body weight was recorded weekly. […] Body weight and food and water intake was recorded daily. […]
Body weight and food and water intake were recorded daily. Following drug administration the animals were examined and any overt behaviour was recorded. […]
The test compounds were dissolved in 1% methylcellulose. […] Drug doses were expressed as free base.
Resulting body weights, food intake and water intake were expressed as mean values±SEM, and the SEMs are calculated from residuals of the statistical model. Body weight data was analysed by ANCOVA with Day 1 as covariate followed by appropriate comparisons (two-tailed) to determine significant differences from the control group. […] Daily food and water intake data was analysed by ANOVA.

T2 sequence (P21554 whole entry): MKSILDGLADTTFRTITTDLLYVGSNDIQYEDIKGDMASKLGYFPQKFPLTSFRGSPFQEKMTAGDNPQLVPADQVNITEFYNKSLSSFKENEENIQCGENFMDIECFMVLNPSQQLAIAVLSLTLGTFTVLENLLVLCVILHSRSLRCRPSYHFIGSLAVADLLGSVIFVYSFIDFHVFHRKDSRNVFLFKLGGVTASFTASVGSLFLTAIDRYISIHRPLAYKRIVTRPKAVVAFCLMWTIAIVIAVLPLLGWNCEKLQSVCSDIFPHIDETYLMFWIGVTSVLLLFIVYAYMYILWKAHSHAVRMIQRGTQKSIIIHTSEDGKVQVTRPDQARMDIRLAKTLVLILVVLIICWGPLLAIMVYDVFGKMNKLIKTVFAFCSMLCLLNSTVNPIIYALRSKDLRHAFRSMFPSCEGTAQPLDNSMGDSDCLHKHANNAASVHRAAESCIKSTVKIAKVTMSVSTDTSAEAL
T1 sequence (P34972 whole entry): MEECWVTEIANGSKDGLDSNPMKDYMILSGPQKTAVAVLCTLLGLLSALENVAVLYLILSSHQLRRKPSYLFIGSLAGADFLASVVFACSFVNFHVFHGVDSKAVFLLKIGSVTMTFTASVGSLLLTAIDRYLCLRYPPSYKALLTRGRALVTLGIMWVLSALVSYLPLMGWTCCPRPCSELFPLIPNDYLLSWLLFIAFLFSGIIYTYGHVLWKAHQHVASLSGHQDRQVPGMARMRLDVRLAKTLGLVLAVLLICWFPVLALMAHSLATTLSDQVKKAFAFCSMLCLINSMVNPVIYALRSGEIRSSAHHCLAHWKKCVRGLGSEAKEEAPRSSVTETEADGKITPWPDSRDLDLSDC
T3 sequence (P21554 whole entry): as the sequence (P21554 whole entry) above
T4 sequence (P47746 whole entry): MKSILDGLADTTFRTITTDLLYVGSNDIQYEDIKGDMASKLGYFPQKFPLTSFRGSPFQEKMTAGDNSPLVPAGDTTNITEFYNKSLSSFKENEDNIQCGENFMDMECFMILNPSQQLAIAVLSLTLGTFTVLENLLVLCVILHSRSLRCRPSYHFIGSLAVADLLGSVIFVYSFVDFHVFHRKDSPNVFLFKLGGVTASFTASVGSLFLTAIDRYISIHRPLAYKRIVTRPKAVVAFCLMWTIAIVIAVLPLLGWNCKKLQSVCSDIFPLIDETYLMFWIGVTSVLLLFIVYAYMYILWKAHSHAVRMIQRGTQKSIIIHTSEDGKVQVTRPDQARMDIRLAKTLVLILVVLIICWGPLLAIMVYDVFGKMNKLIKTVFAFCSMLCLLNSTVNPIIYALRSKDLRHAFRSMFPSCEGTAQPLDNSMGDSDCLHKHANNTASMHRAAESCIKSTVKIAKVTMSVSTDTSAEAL

effect on the 2-AG dose response (Ca2+i) [1]	pA2 estimation using CP 55940 as an agonist ([2]; CB1 cell line membranes (FIG. 4))	antagonist versus inverse agonist activity in [35S]GTPγS binding ([2]; response dropped below basal levels (FIG. 5))	effect on the 2-AG dose response (Ca2+i) [3]	inhibition of binding of [3H]CP 55,940 [4]	inhibition of binding of [3H]CP 55,940 [5]	SMILES	24 hour body weight change versus vehicle ([6]; one-way ANOVA (FIG. 10))	daily food intake versus vehicle ([6]; one-way ANOVA (FIG. 15))	body weight versus vehicle ([6]; one-way ANOVA (FIG. 16))	weight reduction as compared to vehicle on day 29 [7]
No effect	did not support an allosteric effect	inverse agonist activity	right shift	almost fully inhibited	partially inhibited	Fc1ccc(C(OCCCc2c[nH]cn2)c2ccc(F)cc2)cc1 [compound 7]	–	–	–	–
–	–	–	–	–	–	Cc1c(C(=O)NN2CCCCC2)nn(-c2ccc(Cl)cc2Cl)c1-c1ccc(Cl)cc1 [Rimonabant]	No significant differences versus vehicle	No significant differences versus vehicle	No significant differences versus vehicle	statistically significant weight reduction
